Laboratory results: patent publication US10231939B2, “Hydroxytyrosol and oleuropein compositions for induction of DNA damage, cell death and LSD1 inhibition” (priority 2012, dated 2019)

Tested on: K562 cells
Test: γH2AX immunofluorescence, K562
Type: cell-based, human
Method: Cells were seeded at densities of 1×10^6/mL in 24 well culture (Nalge Nunc, New York, USA) and treated with hydroxytyrosol (0, 20, 100 μM), for 24 hours at 37° C., 5% (v/v) CO2. Cells were then stained and quantified for the number of γH2AX foci per cell nuclei. Briefly, using cytofunnels and filter cards, aliquots of […] were cytospun (Shandon, Inc.) for 5 minutes at 500 rpm onto Poly-o-lysine slides (Menzel-Glaser, Germany). All cells were then fixed for 10 minutes with 4% paraformaldehyde (Sigma-Aldrich, USA), washed once for five minutes with PBS without calcium and magnesium and permeabilized using 0.1% Triton X-100(Sigma-Aldrich, USA) for 10 minutes at room temperature. […]
Images were acquired using a Zeiss LSM 510 Meta laser confocal microscope fitted with a Z-stage motor and 63× oil plan apochromat objective with a refractive index of 1.40. […] Images required for γH2AX quantification were acquired in 512×512 pixel format and loaded into Image J (Fiji version 1.44a). […]
Image J software was used for the quantification of foci in all experiments. […] Now clearly defined nuclear regions were selected, numbers of foci were quantified by using the find maxima tool. […] Foci were now quantified as a total number for all cells selected. The average number of foci per nucleus was calculated and recorded into Excel spread sheets (Microsoft, Redmond, Wash., USA). […]

## OCCc1ccc(O)c(O)c1 [HT, 4-(2-hydroxyethyl)-1,2-benzenediol]
K562, 0, 20, 100 μM, 24 hours
  DNA double-strand breaks (γH2AX accumulation): induces significant DNA-double strand breaks
K562, 100 μM hydroxytyrosol pre-treatment 24 hours
  effect on DNA damage by anti-cancer modalities (doxorubicin, vinblastine, mitomycin C, UVA, γ-radiation): enhances the DNA damaging effects
